Experimental data from patent US8173705B2, “Agent for alleviating wrinkles” (Shiseido Company Ltd., priority 2007, dated 2012).

Test system: SCCA 1 (Serpin b3) expression
Test: Effect of suppressing SCCA 1 expression (RT-PCR in human normal keratinocytes)
Format: cell-based
Conditions: incubated 24 hours, G3PDH internal standard, compared with control sample
Method: Human normal keratinocytes (manufactured by KURABO INDUSTRIES LTD.) were incubated with culture medium, Epilife (manufactured by KURABO INDUSTRIES LTD.) For medium replacement, the medium was subcultured for three times a week. The human normal keratinocytes were seeded on 3.5 cm dishes. In the phase of 60 to 70% confluent, 200 μM and 1 mM of N-benzenesulfonyl-gamma-aminobutyric were respectively added to the dishes, which were incubated for 24 hours. Then RNAs were extracted with use of Isogen, and SCCA 1 (Serpin b3) expression levels were measured by RT-PCR. Additionally, as a control sample, the same test except no addition of gamma-aminobutyric acid derivatives was conducted. G3PDH was used as internal standard. The primers used for PCR were as follows.

O=C(O)CCCNS(=O)(=O)c1ccccc1 [N-benzenesulfonyl-gamma-aminobutyric acid]
Serpin b3 (SCCA 1) expression level (200 μM added): significantly decreased
Serpin b3 (SCCA 1) expression level (1 mM added): significantly decreased
